Measurements published in patent US12102608B2, “Composition of acylethanolamides from olive oil fatty acids” (EPITECH GROUP S.P.A., priority 2021, dated 2024).

Assays:
Assay type in all cases: in vivo, rat
[1] = system: paw edema of animals injected with CAR; test: Carrageenan-induced paw edema, plethysmometer; conditions: per os 30 min before CAR in 2% CMC; PEA 2 mg/kg, OEA 6 mg/kg, complex/silica 20 mg/kg; 1 h to 6 h after CAR; FIG. 1
Description: The study was conducted on male Sprague-Dawley rats (200-235 g; Harlan, Nossan, Italy) fed ad libitum and housed in cages with a controlled sleep/wake cycle. Before the start of the experimentation, the animals were subjected to an acclimatization period of 1 week considering all the experimental procedures and protocols, compliant with the principles of the care of laboratory animals approved by the Italian Ministry of Health and respecting the guidelines of the European Economic Community. The animals were subjected to a single injection of 100 μl of saline solution containing 1% Carrageenan (CAR) in one of the two hind legs. Paw edema was measured with a plethysmometer (Ugo Basile, Comerio, Varese, Italy) (Salvemini D et al. Nitric oxide: A key mediator in the early and late phase of carrageenan-induced rat paw inflammation. Br. J. Pharmacol. 1996; 118: 829-838) before the CAR injection and after the inoculation thereof every hour for 6 h. The hyperalgesic responses to heat were assessed using the plantar test with a cut-off latency of 20 sec to avoid tissue damage. […] The suspension latency period of the injected paw was determined by an electronic circuit and the results were expressed in seconds. Edema was expressed as increased paw volume (mL) after the CAR injection with respect to the pre-injection value for all the animals. […]

[2] = system: CAR-induced thermal hyperalgesia; test: Plantar test, thermal hyperalgesia after CAR injection; conditions: per os 30 min before CAR in 2% CMC; PEA 2 mg/kg, OEA 6 mg/kg, complex/silica 20 mg/kg; 1 h to 6 h after CAR, vs. vehicle; FIG. 2
Description: The study was conducted on male Sprague-Dawley rats (200-235 g; Harlan, Nossan, Italy) fed ad libitum and housed in cages with a controlled sleep/wake cycle. Before the start of the experimentation, the animals were subjected to an acclimatization period of 1 week considering all the experimental procedures and protocols, compliant with the principles of the care of laboratory animals approved by the Italian Ministry of Health and respecting the guidelines of the European Economic Community. The animals were subjected to a single injection of 100 μl of saline solution containing 1% Carrageenan (CAR) in one of the two hind legs. Paw edema was measured with a plethysmometer (Ugo Basile, Comerio, Varese, Italy) (Salvemini D et al. Nitric oxide: A key mediator in the early and late phase of carrageenan-induced rat paw inflammation. Br. J. Pharmacol. 1996; 118: 829-838) before the CAR injection and after the inoculation thereof every hour for 6 h. The hyperalgesic responses to heat were assessed using the plantar test with a cut-off latency of 20 sec to avoid tissue damage. The rats were individually housed in plexiglass compartments to acclimatize them before subjecting them to thermal stimulation. The suspension latency period of the injected paw was determined by an electronic circuit and the results were expressed in seconds. […]

[3] = system: tissue damage of the paw of animals subjected to CAR injection; test: Histology of paw tissue (Hematoxylin/Eosin), tissue damage score; conditions: per os 30 min before CAR; PEA 2 mg/kg, OEA 6 mg/kg, complex/silica 20 mg/kg; tissue taken 6 h after CAR; FIG. 3
Description: (§1) The study was conducted on male Sprague-Dawley rats (200-235 g; Harlan, Nossan, Italy) fed ad libitum and housed in cages with a controlled sleep/wake cycle. Before the start of the experimentation, the animals were subjected to an acclimatization period of 1 week considering all the experimental procedures and protocols, compliant with the principles of the care of laboratory animals approved by the Italian Ministry of Health and respecting the guidelines of the European Economic Community. […]

[4] = system: mast cells in the paw tissue; test: Toluidine Blue staining of mast cells in paw tissue; conditions: per os 30 min before CAR; PEA 2 mg/kg, OEA 6 mg/kg, complex/silica 20 mg/kg; 6 h after CAR; PEA and OEA compared with sham; FIG. 4
Description: as §1

| Compound | edema (increased paw volume) caused by CAR [1] | CAR-induced thermal hyperalgesia (plantar test latency) [2] | paw tissue damage (E/E histological score) [3] | number of mast cells / mast cell infiltrate in paw tissue [4] |
| --- | --- | --- | --- | --- |
| CCCCCCCC/C=C\CCCCCCCC(=O)NCCO [OEA, oleoylethanolamide] | No significant reduction in the edema | No analgesic effect | not capable of protecting the paw tissues | significant increase in the number of mast cells |
| CCCCCCCCCCCCCCCC(=O)NCCO [PEA, palmitoylethanolamide] | No significant reduction in the edema | No analgesic effect | not capable of protecting the paw tissues | significant increase in the number of mast cells |
